For 30 compounds, activity coefficient results are on record in the NIST ThermoML archive (doi:10.1016/j.jct.2012.03.005).

The nature of this data set: activity coefficient (dimensionless); of the first substance listed, at infinite dilution; xn = mol fraction of the nth substance listed. To be noted: 101 kPa, Liquid, Chromatography, x1 = 0.

Numbers after ± are expanded uncertainties.

For `Cc1ccc(C)cc1` [1,4-dimethylbenzene] + CCn1cc[n+](C)c1.CS(=O)(=O)[O-], the activity coefficient is, setting by setting: (308.15 K) 18.6 ± 1.3; (318.15 K) 18.7 ± 1.3; (328.15 K) 18.7 ± 1.3; (338.15 K) 18.8 ± 1.3; (348.15 K) 18.8 ± 1.3; (358.15 K) 18.9 ± 1.3.
As to `C=CCCCCCCCC` [1-decene] + CCn1cc[n+](C)c1.CS(=O)(=O)[O-], the activity coefficient reads like this: (308.15 K) 654 ± 45; (318.15 K) 584 ± 40; (328.15 K) 528 ± 36; (338.15 K) 479 ± 33; (348.15 K) 434 ± 30.
Consider `CCCC(C)=O` [pentan-2-one] + CCn1cc[n+](C)c1.CS(=O)(=O)[O-], for which the activity coefficient was determined as 7.83 ± 0.53 (308.15 K); 7.66 ± 0.52 (318.15 K); 7.52 ± 0.51 (328.15 K); 7.39 ± 0.5 (338.15 K); 7.26 ± 0.5 (348.15 K); 7.14 ± 0.49 (358.15 K).
As for `C=C(C)c1ccccc1` [(1-methylethenyl)benzene] + CCn1cc[n+](C)c1.CS(=O)(=O)[O-], the activity coefficient reads like this: (308.15 K) 10.7 ± 0.7; (318.15 K) 10.9 ± 0.7; (328.15 K) 11.1 ± 0.8; (338.15 K) 11.2 ± 0.8; (348.15 K) 11.3 ± 0.8; (358.15 K) 11.5 ± 0.8.
As to `C#CCCCCCC` [1-octyne] + CCn1cc[n+](C)c1.CS(=O)(=O)[O-], the activity coefficient runs as follows: (308.15 K) 26.2 ± 1.8; (318.15 K) 26.2 ± 1.8; (328.15 K) 25.6 ± 1.8; (338.15 K) 25.3 ± 1.7; (348.15 K) 25.1 ± 1.7.
Take `C=CCCCCC` [1-heptene] + CCn1cc[n+](C)c1.CS(=O)(=O)[O-]: the activity coefficient reads like this: (308.15 K) 148 ± 10; (318.15 K) 134 ± 9; (328.15 K) 122 ± 8; (338.15 K) 112 ± 8; (348.15 K) 102 ± 7.
As to `Cc1ccccc1` [toluene] + CCn1cc[n+](C)c1.CS(=O)(=O)[O-], the activity coefficient was found to be 9.13 ± 0.62 (308.15 K); 9.03 ± 0.62 (318.15 K); 8.88 ± 0.61 (328.15 K); 8.77 ± 0.6 (338.15 K); 8.65 ± 0.59 (348.15 K); 8.53 ± 0.58 (358.15 K).
Regarding `CCOCC` [diethyl ether] + CCn1cc[n+](C)c1.CS(=O)(=O)[O-], the activity coefficient (308.15 K) is 19.2 ± 1.3; the activity coefficient (318.15 K) amounted to 18.2 ± 1.2; the activity coefficient (328.15 K) was determined as 17.5 ± 1.2; the activity coefficient (338.15 K) is 16.8 ± 1.1; the activity coefficient (348.15 K) was 16.1 ± 1.1.
Regarding `Cc1cccc(C)c1` [1,3-dimethylbenzene] + CCn1cc[n+](C)c1.CS(=O)(=O)[O-], the activity coefficient runs as follows: (308.15 K) 19.7 ± 1.3; (318.15 K) 19.1 ± 1.3; (328.15 K) 18.6 ± 1.3; (338.15 K) 18.1 ± 1.2; (348.15 K) 17.6 ± 1.2; (358.15 K) 17.1 ± 1.2.
Take `CCC[N+](=O)[O-]` [1-nitropropane] + CCn1cc[n+](C)c1.CS(=O)(=O)[O-]: the activity coefficient (308.15 K) turned out to be 2.36 ± 0.16; the activity coefficient (318.15 K) was 2.37 ± 0.16; the activity coefficient (328.15 K) is 2.37 ± 0.16; the activity coefficient (338.15 K) came to 2.38 ± 0.16; the activity coefficient (348.15 K) was found to be 2.39 ± 0.16; the activity coefficient (358.15 K) was determined as 2.39 ± 0.16.
Regarding `CCCCCCC` [heptane] + CCn1cc[n+](C)c1.CS(=O)(=O)[O-], the activity coefficient is, setting by setting: (308.15 K) 378 ± 26; (318.15 K) 328 ± 23; (328.15 K) 273 ± 19; (338.15 K) 244 ± 17.
Regarding `O` [water] + CCn1cc[n+](C)c1.CS(=O)(=O)[O-], the activity coefficient stood at 0.071 ± 0.03 (318.15 K); 0.075 ± 0.03 (328.15 K); 0.079 ± 0.03 (338.15 K); 0.083 ± 0.03 (348.15 K); 0.088 ± 0.03 (358.15 K).
For the compound `CCCCCCCC` [octane] + CCn1cc[n+](C)c1.CS(=O)(=O)[O-], the activity coefficient (308.15 K) came to 597 ± 41; the activity coefficient (318.15 K) was 505 ± 35; the activity coefficient (328.15 K) came to 453 ± 31; the activity coefficient (338.15 K) came to 388 ± 27; the activity coefficient (348.15 K) is 350 ± 24.
Turning to `Cc1ccccc1C` [1,2-dimethylbenzene] + CCn1cc[n+](C)c1.CS(=O)(=O)[O-], the activity coefficient by setting is: (308.15 K) 15 ± 1; (318.15 K) 14.6 ± 1; (328.15 K) 14.3 ± 1; (338.15 K) 14 ± 1; (348.15 K) 13.8 ± 0.9; (358.15 K) 13.5 ± 0.9.
As for `CCC(C)(C)OC` [2-methoxy-2-methylbutane] + CCn1cc[n+](C)c1.CS(=O)(=O)[O-], the activity coefficient (308.15 K) is 40.3 ± 2.8; the activity coefficient (318.15 K) came out at 37.8 ± 2.6; the activity coefficient (328.15 K) was 35.8 ± 2.5; the activity coefficient (338.15 K) stood at 34 ± 2.3; the activity coefficient (348.15 K) worked out at 32.6 ± 2.2.
In the same order, the values of `CC(C)OC(C)C` [diisopropyl ether] + CCn1cc[n+](C)c1.CS(=O)(=O)[O-] are 79.6 ± 5.5, 74.3 ± 5.1, 68.7 ± 4.7, 64.8 ± 4.4 and 60.6 ± 4.2.
Regarding `C=CCCCCCC` [oct-1-ene] + CCn1cc[n+](C)c1.CS(=O)(=O)[O-], the activity coefficient by setting is: (308.15 K) 258 ± 18; (318.15 K) 228 ± 16; (328.15 K) 206 ± 14; (338.15 K) 187 ± 13; (348.15 K) 170 ± 12.
Regarding `c1ccncc1` [pyridine] + CCn1cc[n+](C)c1.CS(=O)(=O)[O-], the activity coefficient reads like this: (308.15 K) 1.56 ± 0.1; (318.15 K) 1.57 ± 0.1; (328.15 K) 1.59 ± 0.11; (338.15 K) 1.6 ± 0.1; (348.15 K) 1.62 ± 0.11; (358.15 K) 1.64 ± 0.11.
Regarding `C#CCCCC` [1-hexyne] + CCn1cc[n+](C)c1.CS(=O)(=O)[O-], the activity coefficient is 7.87 ± 0.54 (308.15 K); 8.07 ± 0.55 (318.15 K); 8.06 ± 0.55 (328.15 K); 8.29 ± 0.57 (338.15 K); 8.27 ± 0.56 (348.15 K).
As for `C1CCCCCC1` [cycloheptane] + CCn1cc[n+](C)c1.CS(=O)(=O)[O-], the activity coefficient by setting is: (308.15 K) 113 ± 8; (318.15 K) 99.8 ± 6.9; (328.15 K) 90.7 ± 6.2; (338.15 K) 79.9 ± 5.5; (348.15 K) 72.6 ± 5.
For `CCOC(C)(C)C` [2-ethoxy-2-methylpropane] + CCn1cc[n+](C)c1.CS(=O)(=O)[O-], the activity coefficient runs as follows: (308.15 K) 66.5 ± 4.6; (318.15 K) 60.8 ± 4.2; (328.15 K) 57.1 ± 3.9; (338.15 K) 53.5 ± 3.7; (348.15 K) 50 ± 3.4.
In the same order, the values of `C#CCCCCC` [1-heptyne] + CCn1cc[n+](C)c1.CS(=O)(=O)[O-] are 14.4 ± 1, 14.6 ± 1, 14.5 ± 1, 14.6 ± 1 and 14.6 ± 1.
For `CCCCCCCCC` [nonane] + CCn1cc[n+](C)c1.CS(=O)(=O)[O-], the activity coefficient runs as follows: (308.15 K) 911 ± 63; (318.15 K) 779 ± 54; (328.15 K) 690 ± 48; (338.15 K) 607 ± 42; (348.15 K) 547 ± 38; (358.15 K) 507 ± 35.
Turning to `CCCO` [propan-1-ol] + CCn1cc[n+](C)c1.CS(=O)(=O)[O-], the activity coefficient (308.15 K) turned out to be 0.761 ± 0.05; the activity coefficient (318.15 K) turned out to be 0.75 ± 0.05; the activity coefficient (328.15 K) is 0.736 ± 0.049; the activity coefficient (338.15 K) was 0.724 ± 0.048; the activity coefficient (348.15 K) was 0.716 ± 0.048; the activity coefficient (358.15 K) was determined as 0.708 ± 0.047.
With `C=CCCCC` [hex-1-ene] + CCn1cc[n+](C)c1.CS(=O)(=O)[O-], the activity coefficient turned out to be 85.1 ± 5.8 (308.15 K), 77.1 ± 5.3 (318.15 K), 70.4 ± 4.8 (328.15 K) and 63.9 ± 4.4 (338.15 K).
As for `c1ccccc1` [benzene] + CCn1cc[n+](C)c1.CS(=O)(=O)[O-], the activity coefficient amounted to 308 ± 21 (308.15 K); 318 ± 22 (318.15 K); 328 ± 23 (328.15 K); 338 ± 23 (338.15 K); 348 ± 24 (348.15 K); 358 ± 25 (358.15 K).
Take `CCc1ccccc1` [ethylbenzene] + CCn1cc[n+](C)c1.CS(=O)(=O)[O-]: the activity coefficient by setting is: (308.15 K) 18.1 ± 1.2; (318.15 K) 17.5 ± 1.2; (328.15 K) 17.1 ± 1.2; (338.15 K) 16.5 ± 1.1; (348.15 K) 16.1 ± 1.1; (358.15 K) 15.6 ± 1.1.
Regarding `C1CCCCCCC1` [cyclooctane] + CCn1cc[n+](C)c1.CS(=O)(=O)[O-], the activity coefficient is, setting by setting: (308.15 K) 163 ± 11; (318.15 K) 143 ± 10; (328.15 K) 128 ± 9; (338.15 K) 114 ± 8; (348.15 K) 101 ± 7.
For `C=Cc1ccccc1` [styrene] + CCn1cc[n+](C)c1.CS(=O)(=O)[O-], the activity coefficient runs as follows: (308.15 K) 5.68 ± 0.39; (318.15 K) 5.71 ± 0.39; (328.15 K) 5.75 ± 0.39; (338.15 K) 5.79 ± 0.39; (348.15 K) 5.82 ± 0.4; (358.15 K) 5.85 ± 0.4.
For `CO` [methanol] + CCn1cc[n+](C)c1.CS(=O)(=O)[O-], the activity coefficient runs as follows: (308.15 K) 0.223 ± 0.029; (318.15 K) 0.225 ± 0.029; (328.15 K) 0.228 ± 0.029; (338.15 K) 0.229 ± 0.029; (348.15 K) 0.232 ± 0.029; (358.15 K) 0.234 ± 0.029.
